The target of one experiment is T1, SSAO (Homo sapiens, UniProt Q16853).
T1 construct: benzylamine oxidation by hAT preparations, naturally rich in SSAO/VAP-1; from tissue; host or cells: human subcutaneous abdominal adipose tissue (hAT), crude homogenate
T1 sequence (Q16853 1-763): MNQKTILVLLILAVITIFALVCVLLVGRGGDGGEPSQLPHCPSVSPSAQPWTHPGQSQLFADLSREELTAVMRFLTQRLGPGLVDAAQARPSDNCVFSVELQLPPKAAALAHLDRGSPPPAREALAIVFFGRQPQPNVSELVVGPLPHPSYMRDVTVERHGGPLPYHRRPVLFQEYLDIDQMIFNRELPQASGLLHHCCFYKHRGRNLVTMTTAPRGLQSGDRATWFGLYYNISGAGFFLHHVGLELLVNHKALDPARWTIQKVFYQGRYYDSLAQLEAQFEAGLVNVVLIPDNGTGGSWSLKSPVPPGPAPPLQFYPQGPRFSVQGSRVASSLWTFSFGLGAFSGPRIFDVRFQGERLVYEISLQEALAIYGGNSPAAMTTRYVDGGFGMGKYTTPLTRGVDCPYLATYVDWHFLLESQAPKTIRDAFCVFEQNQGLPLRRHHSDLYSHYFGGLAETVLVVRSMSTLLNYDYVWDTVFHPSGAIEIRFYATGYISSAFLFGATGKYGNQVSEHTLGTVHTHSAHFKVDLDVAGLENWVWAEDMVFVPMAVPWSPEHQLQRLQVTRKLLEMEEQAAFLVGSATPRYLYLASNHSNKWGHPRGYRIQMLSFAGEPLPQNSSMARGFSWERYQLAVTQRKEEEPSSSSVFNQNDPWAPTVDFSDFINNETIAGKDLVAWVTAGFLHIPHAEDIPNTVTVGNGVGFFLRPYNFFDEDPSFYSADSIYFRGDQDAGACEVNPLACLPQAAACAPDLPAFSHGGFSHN
Nature of the experiment: Amplex Red fluorometric detection of benzylamine-induced hydrogen peroxide release in human adipose tissue homogenates. The format is biochemical. To be noted: for effect on benzylamine-induced H2O2 release: tested agent at 1 mM, 1 mM benzylamine, hAT homogenates, Amplex Red. As to the method:
(§1) Oxidase activity was measured using the fluorescent probe Amplex Red (10-acetyl-3,7-dihydrophenoxazine) designed for the detection of hydrogen peroxide in biological milieu. Assays were performed accordingly to our previous descriptions, which corresponded to slight modifications from the adaptation of such fluorometric method for MAO activity determination. Briefly, hydrogen peroxide release was quantified owing to a chromogenic mixture containing 40 μM Amplex Red and 4 U/mL horseradish peroxidase and to the parallel use of hydrogen peroxide standard solutions ranging from 0.05 to 5 μM (final concentrations). Thawed hAT samples were homogenized in 200 mM phosphate buffer (pH 7.4) during 30 sec with a homogenizer Tissue Master-125 (Omni International, Kennesaw, GA, USA) just prior to the determination of their amine oxidase activity, as previously reported, except that no antiprotease cocktail was added. Homogenates were distributed in 96-well dark microplates (at 50 ± 5 μg protein/well) and incubated at 37°C in the dark for at least 30 min in 200 μL final volume after a 30 min preincubation without (control) or with 1 mM pargyline or semicarbazide to inhibit MAO or SSAO activity, respectively, or even with both reference inhibitors to abolish all AO activity. All phenolic compounds tested for their inhibitory properties were also added during this preincubation step. Tyramine or benzylamine was added to the medium in order to obtain 1 mM concentration and to serve as substrates for AO activities, as already stated.
(§2) Spontaneous hydrogen peroxide formation by homogenates of thawed material was also quantified without any addition of exogenous amine or inhibitor and defined as basal release. The influence of chemical compounds or biochemical agents on the fluorescence readouts generated by the hydrogen peroxide standard curve was also performed without any presence of hAT in a set of experiments called “without biological material.” In all cases, fluorescence data (ex/em: 540/590 nm) were collected on a Fluoroskan Ascent plate reader (ThermoLabsystems, Finland).
Fluorescence readouts after 30 min incubation were substracted from corresponding values at t0 and net increase was set at 100% for 1 mM benzylamine alone. (a) Pargyline (MAO, dark squares) or semicarbazide (SSAO inhibitor, open squares) was present at indicated final concentrations, while their combination was tested at 1 mM (P + S, black triangle). Mean ± SEM of at least 6 homogenates. (b) The phenolic compounds were tested in parallel at the indicated final concentrations. Means ± SEM of 8 to 12 homogenates.

Experiment [1] in a line: Amplex Red-based fluorescence of 5 μM hydrogen peroxide without biological material. Particulars: read-out: EC50 for lowering the fluorescent signal elicited by 5 μM hydrogen peroxide; without any human biological material, Amplex Red chromogenic mixture. As to the method:
as §2
Figure 4 Influence of amine oxidase substrates or inhibitors and phenolic compounds on fluorescent-based detection of hydrogen peroxide. The chromogenic mixture used for Amplex Red-based fluorometric detection of hydrogen peroxide was incubated with 5 μM H2O2 alone (control set at 100%) or in the presence of the indicated final concentrations of tested chemicals. […] Means ± SEM of 7 measurements without any human material.

Experiment [2] has as its system MAO. Nature of the experiment: Radiochemical assay of [14C]-tyramine oxidation by hAT homogenates. The format is biochemical, human. Particulars: 1 mM [14C]-tyramine, 30 min. The protocol: (§3) Samples of adipose tissue were homogenized as described above. 50 μL of crude homogenates were then incubated for 30 min at 37°C in 200 μL of 200 mM phosphate buffer in the presence of radiolabelled amine after 30 min preincubation without or with inhibitor(s). MAO-dependent oxidation was defined as sensitive to inhibition by 1 mM pargyline, whereas SSAO-dependent oxidation was abolished by 1 mM semicarbazide. Assays were started by addition of the labelled substrate and stopped by adding 50 μL of 4 M HCl. Reaction products of amine oxidation were extracted by 1 mL of organic solvent (toluene/ethyl acetate, 1/1 v/v), according to Tipton's method. Then, 0.7 mL aliquots of the organic phase were counted for radioactivity. Maximal velocity and optimal conditions for determination of amine oxidase activities have been already detailed for human adipocytes, cultured preadipose cells, or hAT homogenates. Thus, inhibition studies were performed only under conditions reaching maximal oxidation velocity, that is, corresponding to the use of tyramine or benzylamine isotopic dilutions giving 1 mM final concentration and reaching approximately 640000 dpm/50 μL for [^14C]-tyramine (provided either by PerkinElmer, Evry, France, or by Sigma-Aldrich) or 200000 dpm/50 μL for [^14C]-benzylamine (NEC 835050UC purchased from PerkinElmer). The radioactivity extracted in the organic phase at time 0 (t0) represented less than 0.5% of the total radioactivity/tube of each labelled amine and was subtracted to all counts with tyramine and benzylamine oxidation without inhibitor averaging 14160 ± 5620 dpm (n = 16) and 15800 ± 1770 dpm (n = 12), respectively. These absolute values, which varied substantially from one individual to another, were set as 100% reference in each subject for the calculation of percentages of inhibition.
Figure 5 Influence of phenolic compounds and MAO inhibitors or SSAO inhibitors on tyramine oxidation by hAT. The production of radiolabelled aldehydes resulting from the 30 min incubation of fat tissue homogenates with 1 mM isotopic dilution of [^14C]-tyramine was set at 100% in the absence of added inhibitor, while the background radioactivity detected at t0 was set at 0%. (a) Inhibition by pargyline only of MAO-dependent tyramine oxidation. (b) Influence of phenolic compounds on tyramine oxidation. Each point is the mean ± SEM of 8 (inhibitors) to 12 (phenolic compounds) homogenates.

A further experiment addresses T2, SSAO/VAP-1 (Homo sapiens, UniProt Q16853).
T2 construct: benzylamine oxidation by hAT preparations, naturally rich in SSAO/VAP-1; from tissue; host or cells: human subcutaneous abdominal adipose tissue (hAT), crude homogenate
T2 sequence (Q16853 1-763): T1 sequence (Q16853 1-763)
Nature of the experiment: Radiochemical assay of [14C]-benzylamine oxidation by hAT homogenates. The format is biochemical. Particulars: 1 mM [14C]-benzylamine, 30 min, up to 1 mM. As to the method: as §3
Figure 6 Influence of phenolic compounds and MAO inhibitors or SSAO inhibitors on benzylamine oxidation by hAT. (a) Thirty-minute oxidation of 1 mM [^14C]-benzylamine by homogenates generated amounts of radiolabelled benzaldehyde that were separated by extraction as described in Materials and Methods and set at 100% signal (control), while 0% corresponded to the extractible radioactivity at t0. The reference MAO inhibitors (pargyline) or SSAO (semicarbazide) inhibitors were present, separately or in combination at 1 mM, […] before the addition of the radiolabelled substrate. […] Each point is the mean ± SEM of 8 homogenates.

The subject of the next experiment is human adipocytes. The experiment is described as follows: [3H]-2-deoxy-glucose uptake in freshly isolated adipocytes. The format is cell-based. To be noted: phenolic compound 100 μM (P + S 1 mM each), benzylamine stimulation, 45 min incubation. The protocol: To determine glucose transport activity, hAT was grossly minced and digested at 37°C under shaking in 20 mL of Krebs-Ringer medium containing 0.015 mg/mL liberase (type TM, Roche Diagnostics), 15 mM sodium bicarbonate, 10 mM HEPES, and 3.5% bovine serum albumin. Buoyant adipocytes were separated by filtration through nylon screen and carefully washed in the same medium at pH 7.4 without liberase to obtain adipocyte suspensions as already described. Freshly isolated adipocytes were incubated for 45 min with the tested agents just before [^3H]-2-deoxy-glucose uptake assays (PerkinElmer) performed in 10 min at 37°C in plasticware as already described.
Figure 9 Effects of phenolic compounds, benzylamine, and insulin on glucose transport in human adipocytes. Freshly isolated adipocytes were incubated for 45 min without (basal) or with insulin 100 nM (ins.) or with benzylamine and phenolic compounds at the indicated doses. Then 2-DG uptake assays were performed on 10 min as detailed in Section 2. […] Basal, insulin-stimulated, or benzylamine-stimulated 2-DG uptake was tested without (no addition, open columns) or with pargyline + semicarbazide at 1 mM each (P + S, dark columns). Mean ± SEM of 39 cases. Different from basal alone at ^### P < 0.001. Different from benzylamine alone at ^∗∗∗ P < 0.001. (b) Insulin was used as the agent of reference for maximal transport stimulation, set at 100%. Benzylamine was tested at 1 mM alone (control, open column) or in the presence of 100 μM of the indicated phenolic compounds. Mean ± SEM of 7 observations. Different from benzylamine alone at ^∗ P < 0.05 and ^∗∗ P < 0.01.

Experiment [3] relates to MAO. Nature of the experiment: Amplex Red fluorometric detection of tyramine-induced hydrogen peroxide release in human adipose tissue homogenates. Particulars: for effect on tyramine-induced H2O2 release: 1 mM tyramine, hAT homogenates, Amplex Red, inhibitors 1 μM to 1 mM. The format is biochemical. As to the method:
as §1, §2

The next experiment concerns MAO-A. More on the design: method as in PMID 19013512. To be noted: at 10-100 μM, peroxidase-based detection of hydrogen peroxide; cited from earlier work.

Each structure is given as a SMILES string. Values joined by “and” are separate entries in the source; they are usually repeats but may differ in a detail not shown here. Equal entries are not always repeated. Structures can show the parent of a compound that is named as a salt.

In the case of `NCc1ccccc1` [benzylamine, benzylamine hydrochloride], the “effect on hydrogen peroxide production by hAT preparations” value at SSAO (1 mM benzylamine as substrate, 30 min, versus basal) is “significantly increased the amount of detected hydrogen peroxide”.
Usually EC50 stands for the concentration that produces a half-maximal response. Turning to `O=C(O)/C=C/c1ccc(O)c(O)c1` [caffeic acid], at SSAO, the “effect on benzylamine-induced H2O2 release” value was “abolished benzylamine-induced signal”. Moreover, the EC50 in experiment [1] is 3.5 µM. In addition, the “effect on [14C]-tyramine oxidation” value with MAO [2] is recorded as “did not abolish enzyme activity”. Further, the “effect on SSAO-mediated [14C]-benzylamine oxidation” value (shortened to “effect on SSAO-mediated”) on SSAO/VAP-1 is listed as “without preventing benzylamine degradation”. In the experiment with human adipocytes, the “effect on benzylamine-stimulated deoxyglucose uptake” value is “No clear-cut inhibition”.
Turning to `C#CCN(C)Cc1ccccc1` [pargyline], the “proportion of tyramine-induced H2O2 production left unaltered” value in the experiment on MAO [3] (1 mM pargyline alone or with 1 mM semicarbazide, 1 mM tyramine = 100%) is “approximately 30%”. Besides, the “effect on tyramine-induced H2O2 release” value with MAO [3] was “inhibited dose-dependently”. Further, on SSAO, the “effect on benzylamine-induced H2O2 release” value is on record as “resistant”. Also, the “effect on [14C]-tyramine oxidation” value in the experiment on MAO [2] is “inhibited”. Moreover, the “effect on SSAO-mediated” value on SSAO/VAP-1 was “could not prevent this type of amine metabolism”.
Regarding `COc1cc(/C=C/c2ccc(O)cc2)cc(OC)c1` [pterostilbene], the “effect on benzylamine-induced H2O2 release” value on SSAO is listed as “impaired partially the benzylamine-induced signal”. In addition, the EC50 in experiment [1] turned out to be 5.2 µM. Also, the “effect on [14C]-tyramine oxidation” value in the experiment with MAO [2] is reported as “did not abolish enzyme activity”. Further, the “effect on SSAO-mediated” value at SSAO/VAP-1 is listed as “without preventing benzylamine degradation”. In addition, the “effect on benzylamine-stimulated deoxyglucose uptake” value in the experiment on human adipocytes was “counteracted the effect of 1 mM benzylamine”.
As for `O=c1c(O)c(-c2ccc(O)c(O)c2)oc2cc(O)cc(O)c12` [quercetin], the “effect on benzylamine-induced H2O2 release” value on SSAO is recorded as “impaired partially the benzylamine-induced signal”. Also, the EC50 in experiment [1] was found to be 2 µM. For the same molecule, the “effect on SSAO-mediated” value on SSAO/VAP-1 is “without preventing benzylamine degradation”. Also, the “effect on benzylamine-stimulated deoxyglucose uptake” value with human adipocytes is “counteracted the effect of 1 mM benzylamine”. In addition, in the experiment on MAO-A, the “MAO-A inhibition, in words” value is listed as “inhibit MAO-A in a complete manner”.
With `Oc1ccc(/C=C/c2cc(O)cc(O)c2)cc1` [resveratrol, trans-resveratrol], the “effect on benzylamine-induced H2O2 release” value at SSAO is recorded as “abolished benzylamine-induced signal”. In addition, on SSAO/VAP-1, the “effect on SSAO-mediated” value is “without preventing benzylamine degradation”. Also, in the experiment on human adipocytes, the “effect on benzylamine-stimulated deoxyglucose uptake” value is on record as “counteracted the effect of 1 mM benzylamine”.
Take `NNC(N)=O` [semicarbazide]: in the experiment on MAO [3], the “effect on tyramine-induced H2O2 release” value is listed as “totally inefficient”. In addition, the “proportion of benzylamine-induced H2O2 signal left unaltered” value at SSAO (1 mM semicarbazide alone or with 1 mM pargyline, 1 mM benzylamine = 100%) was 20% and 15–20%. For the same molecule, the “effect on benzylamine-induced H2O2 release” value on SSAO is on record as “inhibited”. Besides, the “effect on [14C]-tyramine oxidation” value in the experiment with MAO [2] is reported as “virtually unable to abolish this activity”. Besides, the “effect on SSAO-mediated” value on SSAO/VAP-1 was “eradicated the generation of labelled benzaldehyde”.
Turning to `NCCc1ccc(O)cc1` [tyramine, tyramine hydrochloride], the “effect on hydrogen peroxide production by hAT preparations” value with MAO [3] (1 mM tyramine as substrate, 30 min, versus basal) is “to a lesser extent, significantly increased the amount of detected hydrogen peroxide”.
